In patent EP4810497A1, “ISOQUINOLINE DERIVATIVE, SYNTHESIS METHOD THEREFOR, AND USE THEREOF” (Harbin Gloria Pharmaceuticals Co., Ltd., priority 2023, dated 2025):
Like-named read-outs stand apart in the source and are kept apart here.

Tests used:
Pgk1 [1] = target: T1, Pgk1 (Homo sapiens, UniProt P00558); assay: Affinity for Pgk1 protein (Biacore T200 chip); format: binding; conditions: for Rmax: amount of drug bound to the target protein when the affinity was detected
T1 sequence (P00558 1-417): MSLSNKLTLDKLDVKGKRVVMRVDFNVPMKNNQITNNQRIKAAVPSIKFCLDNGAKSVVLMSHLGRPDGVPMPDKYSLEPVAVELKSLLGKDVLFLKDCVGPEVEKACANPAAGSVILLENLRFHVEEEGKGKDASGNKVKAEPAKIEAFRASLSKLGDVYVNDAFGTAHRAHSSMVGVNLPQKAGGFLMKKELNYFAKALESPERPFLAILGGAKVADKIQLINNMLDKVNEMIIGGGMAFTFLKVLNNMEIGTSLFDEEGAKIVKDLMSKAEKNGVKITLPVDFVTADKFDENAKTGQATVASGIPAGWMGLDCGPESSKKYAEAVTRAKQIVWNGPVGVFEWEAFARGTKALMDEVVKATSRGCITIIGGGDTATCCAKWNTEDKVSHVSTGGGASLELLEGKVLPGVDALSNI
Experimental: Purified Pgk1 protein (with a concentration of 1 mg/mL) was immobilized on a Biacore T200 chip. […] The obtained curves can calculate parameters such as affinity and Rmax.

Pgk1 [2] = target: T1, Pgk1; conditions: cited from earlier work
α1 adrenergic receptor = conditions: cited from earlier work
SK-N-SH cells = assay: Cellular ATP levels (Promega ATP assay kit); format: cell-based, human; conditions: for cell growth: 50 µM; for optimal dose (cellular ATP levels): doses of 5 µM, 10 µM and 50 µM; for optimal dose (cellular ATP levels) / activity in increasing cellular ATP: 48 hours; for activity in increasing cellular ATP: SK-N-SH cells, 10 µM, 5% O2, untreated control defined as 1 (FIG. 1)
Experimental: Human Neuroblastoma Cell Line (SK-N-SH) is a human-derived neuroblastoma cell line. SK-N-SH cells were seeded in a 6-well plate at a density of 6×10^4 cells per well. The cells were cultured for 12 hours under 5% O2. Various drugs at a concentration of 10 µM were added. After 48 hours, the cells were harvested. Celluar ATP levels were measured using the Promega ATP assay kit. The experiment was repeated 6 times to 10 times. The experimental results were illustrated in FIG. 1. […] T1 to T11 were the experimental groups.
SK-N-SH cells were seeded in a 6-well plate at a density of 6×10^4 per well. Cells were cultured for 12 hours under 5% O2, and the drug was added. Cells were harvested after 48 hours. Cellular ATP levels were measured using a Promega ATP assay kit. The experiment was repeated 5 times to 7 times.

[3] = system: stable Pgk1-knockdown SK-N-SH cell line; assay: Mitochondrial respiration (Seahorse) in Pgk1-knockdown cells; format: cell-based, human; conditions: 10 µM, shPgk1 knockdown cells
Experimental: Cellular mitochondrial stress was detected using a Seahorse XFe analyzer (XFe-24, Seahorse Bioscience, Billerica, MA, UAS) to measure the oxygen consumption rate (OCR). SH-SKN cell lines were seeded in a 24-well plate compatible with the Seahorse XFe analyzer. After 24 hours, cells were treated with DMSO (0.01%) or various drugs (10 µM). Cellular mitochondrial stress was detected 12 hours after drug treatment. For the mitochondrial stress test, 97.2 mL of Seahorse basal medium (Seahorse Bioscience, Billerica, MA, UAS) was taken and heated in a water bath to 37°C, and 1 mL of a stock solution was added. The stock solution was prepared by mixing the following solutions: 1 mL of 200 mM L-glutamine solution (Sigma), 1 mL of 100 mM pyruvate solution (Sigma), and 800 µL of 2.5 M glucose solution, and the pH of the stock solution was adjusted to 7.4 with 1 M NaOH solution. Before detection, the probe plate was taken out, and 1 mL of XF Carlibrant solution (Seahorse Bioscience) was added to the probe plate. The plate was then incubated overnight in a CO2-free constant temperature incubator at 37°C. After drug treatment, the cells were removed and washed twice with preheated Seahorse basal medium at 37°C, ensuring that 500 µL of Seahorse basal medium remained in each well. The cells were incubated in a CO2-free constant temperature incubator at 37°C for 1 hour. […]

db/db mice [4] = assay: Hypoglycemic effect in diabetic model mice, intraperitoneal injection; format: in vivo; conditions: 4 hours later
Experimental: Gene knockout db/db mice are a classic model of hyperglycemia and obesity. Under normal feeding conditions, mice aged 3 months or older developed hyperglycemia and obesity. After the mice were provided with only drinking water (fasted) for 6 hours, blood was collected from the tail of the mice to measure blood glucose values. Subsequently, different drugs, including saline (control), liraglutide at 0.6 mg/Kg, low-concentration T6 (T6 low, 0.1 mg/Kg), and high-concentration T6 (T6 high, 0.5 mg/Kg), were injected intraperitoneally. 4 hours later, blood was collected from the tail of the mice to measure the blood glucose levels. Each group consisted of 6 mice. Blood glucose levels before administration (Vbefore) and after administration (Vafter) were obtained for each mouse. The effect of the drug on blood glucose (%) was calculated as follows: (Vbefore−Vafter) × 100/Vbefore . [formula]

db/db mice [5] = assay: Long-term hypoglycemic and weight-loss effects in diabetic model mice, drinking water; format: in vivo; conditions: 7 days, T6 1.5 mg/kg
Experimental: After 7 days of treatment, changes in glycated hemoglobin (HbA1c) level, insulin level in mouse blood, and body weight, were measured.

Pgk1 [6] = target: T1, Pgk1; assay: In vitro biochemical Pgk1 enzymatic activity (NADH production, absorbance 339 nm); set-up: made in house; host or cells: E. coli BL21(DE3); conditions: for optimal concentration for activating Pgk1: purified Pgk1-His 2 µg/mL, 10 minutes at room temperature
Experimental: Human Pgk1 cDNA was cloned into the pEASYTM-E2 vector (TransGen Biotech) containing a His tag. Protein expression was induced in BL21(DE3) chemocompetent cells (TransGen Biotech) with 0.5 mM IPTG. After lysing cells in extraction buffer (20 mM sodium phosphate, 500 mM NaCl, 5 mM imidazole, 5% glycerol, protease inhibitor cocktail, pH 7.9), the supernatant was purified with nickel beads (AdarBiotech). The His-tagged Pgk1 was eluted with the elution buffer (20 mM sodium phosphate, 500 mM NaCl, 80 mM imidazole, protease inhibitor cocktail, pH 7.9). The activity of Pgk1 can be measured by monitoring the rate of NADH production, as NADH accumulated as the reaction proceeded. Purified Pgkl-His protein (2 µg/mL) was added to the reaction buffer (20 mM Tris, 100 mM NaCl, 2 mM DTT, 0.1 mM MgSO4, 10 mM NaHPO4, pH 8.6), and the substrates (1.6 mM GAP, 1 mM β-NAD, 1 mM ADP, 20 ng/µL GAPDH) was added. […] After reaction for 10 minutes at room temperature, the absorbance wavelength at 339 nm was measured using a microplate reader (Molecular Devices, SpectraMax i3x), and this wavelength corresponds to NADH levels.

[7] = system: MPTP-induced Parkinson's disease model mice; assay: Rotarod motor ability in MPTP-induced Parkinson's disease model; format: in vivo; conditions: day 7 after MPTP injection
Experimental: (§1) Male mice aged 3 months were used and fed normally. The acute MPTP modeling method (see Sonsalla PK, Heikkila RE. The influence of dose and dosing interval on MPTP-induced dopaminergic neurotoxicity in mice. Eur J Pharmacol 1986; 129(3): 339-45.) was employed. MPTP was injected intraperitoneally four times in total at a dose of 20 mg/kg body weight per injection, with a 2-hour interval between each injection. MPTP was dissolved in normal saline, and the control group received an equal dose of normal saline. T2 was dissolved in DMSO and diluted with normal saline to the desired concentration. Accordingly, equal doses of DMSO and normal saline were administered during the treatment. On the day of MPTP model establishment, mice were administered either T2 (treatment group) or DMSO (control group). Subsequently, mice in all groups were administered the corresponding drugs daily. Mouse behavior was tested using a rotarod (E103, UGO BASILE). First, mice were pre-trained for two consecutive days at a constant speed of 15 revolutions per minute (15 rpm) until they could stay on the rod for more than 60 seconds. […] The latency to fall from the rotarod was recorded, and the behavior was monitored by a camera. […] Therefore, whether dopaminergic neurons were damaged can be determined by Western blot assay using an anti-TH antibody.

[8] = system: Tyrosine hydroxylase (TH); assay: Striatal tyrosine hydroxylase Western blot in MPTP-induced Parkinson's disease model; format: in vivo, mice; conditions: 0.1 mg/Kg, striatal tissue
Experimental: as §1

Wild-type mice (C57BL/6) = assay: Blood glucose in normal mice in vivo; conditions: 0.1 mg/kg intraperitoneally, fasted 6 hours after administration
Experimental: Wild-type mice (C57BL/6) aged 3 months to 4 months under normal feeding conditions were intraperitoneally injected with different drugs at 0.1 mg/kg. Mice injected with normal saline served as the control group. Mice were fasted for 6 hours after administration. Blood was collected from the tail of each mouse to measure blood glucose levels. Each group consisted of 9 mice.

[9] = Pgk1 immobilized on Biacore T200 chip, read-out: Affinity

Work on Nc1nc(N2CCN(C(=O)[C@H]3CCCO3)CC2)cc2cc3c(cc12)OCO3 [Compound T1] yielded a Kd (Pgk1 [1]; [9]) of 496 µM.
CC1Oc2cc3cc(N4CCN(C(=O)[C@H]5CCCO5)CC4)nc(N)c3cc2O1 (some centres unmarked) [Compound T3] gave a Kd (Pgk1 [1]; [9]) of 684 µM and an Rmax (Pgk1 [1]) of 93 RU.
For COc1cc2cc(N3CCN(C(=O)C4CCCO4)CC3)nc(N)c2cc1OC (centres unmarked) [TZ-md], the “effect of activating Pgk1” value (Pgk1 [2]) is given as “still retains the effect of activating Pgk1” and the “inhibition of the α1 adrenergic receptor” value (α1 adrenergic receptor) is given as “does not inhibit the α1 adrenergic receptor”.
Nc1nc(N2CCN(C(=O)[C@@H]3CCCN3)CC2)cc2cc3c(cc12)OCO3 [Compound T9] showed a Kd (Pgk1 [1]; [9]) of 811 µM and an Rmax (Pgk1 [1]) of 87 RU.
In the case of Nc1ncnc2c1ncn2[C@@H]1O[C@H](COP(=O)(O)OP(=O)(O)O)[C@@H](O)[C@H]1O [ADP, reference compound], the Rmax (Pgk1 [1]) is reported as 35 RU and the Kd (Pgk1 [1]; unit inferred, read-out: KD value) is reported as 337 µM.
With Nc1nc(N2CCN(C(=O)C3CCCC3)CC2)cc2cc3c(cc12)OCO3 [Compound T7] the Kd (Pgk1 [1]; [9]) was 878 µM.
For Nc1nc(N2CCN(C(=O)[C@H]3CCCO3)CC2)cc2cc3c(cc12)OCC3 [Compound T6], the cell growth (SK-N-SH cells) was “tendency to inhibit cell growth”, the “optimal dose (cellular ATP levels)” value (SK-N-SH cells) was 50 µM and the Kd (Pgk1 [1]; [9]) was 375 µM. The basal respiratory rate [3] was “absent”, the maximum respiratory rate [3] was “absent” and the “hypoglycemic effect (blood glucose)” value (db/db mice [4]; high concentration 0.5 mg/kg intraperitoneally) was “significant hypoglycemic effects”. For the same compound, the “hypoglycemic effect (blood glucose)” value (db/db mice [4]; low concentration 0.1 mg/kg intraperitoneally) was “significant hypoglycemic effects”, the body weight (db/db mice [5]) was “significant decrease in body weight” and the “glycated hemoglobin (HbA1c) level” value (db/db mice [5]; terazosin 0.3 mg/kg, metformin 350 mg/kg, versus control group) was “decrease”. For the same compound, the “inhibition of Pgk1 enzymatic activity” value (Pgk1 [6]; all different concentrations tested) was “none of the concentrations can inhibit Pgk1” and the “optimal concentration for activating Pgk1” value (Pgk1 [6]) was 0.1 µM.
In the case of Nc1nc(N2CCN(C(=O)c3ccco3)CC2)cc2cc3c(cc12)OCO3 [Compound T11], the “activity in increasing cellular ATP” value (SK-N-SH cells) is reported as “no such activity of increasing cellular ATP”, the Kd (Pgk1 [1]; [9]) is reported as over 1000 µM and the Rmax (Pgk1 [1]) is reported as “None”.
Nc1nc(N2CCN(C(=O)[C@H]3CCCN3)CC2)cc2cc3c(cc12)OCO3 [Compound T8] showed a Kd (Pgk1 [1]; [9]) of 473 µM and an Rmax (Pgk1 [1]) of 87 RU.
In the case of liraglutide, the “hypoglycemic effect (blood glucose)” value (db/db mice [4]; 0.6 mg/Kg intraperitoneally) is reported as “optimal hypoglycemic effect”.
With Nc1nc(N2CCN(C(=O)[C@H]3CCCO3)CC2)cc2cc3c(cc12)OCCO3 [Compound T10] the “activity in increasing cellular ATP” value (SK-N-SH cells) was “no such activity of increasing cellular ATP”, the Kd (Pgk1 [1]; [9]) was over 1000 µM and the Rmax (Pgk1 [1]) was “None”.
In the case of Nc1nc(N2CCN(C(=O)[C@@H]3CCCO3)CC2)cc2cc3c(cc12)OCO3 [Compound T2], the Kd (Pgk1 [1]; [9]) is reported as 449 µM, the “motor ability (rotarod)” value ([7]; three doses 0.1 mg/Kg, 0.3 mg/Kg and 1 mg/Kg daily) is reported as “exerted protective effects” and the “tyrosine hydroxylase protein levels / effect on dopaminergic neurons” value [8] is reported as “protective effect on dopaminergic neurons”.
Nc1nc(N2CCN(C(=O)[C@H]3CCCO3)CC2)cc2cc3c(cc12)CCO3 [Compound T5] showed a Kd (Pgk1 [1]; [9]) of 273 µM and an Rmax (Pgk1 [1]) of 86 RU.
In the case of COc1cc2nc(N3CCN(C(=O)C4CCCO4)CC3)nc(N)c2cc1OC (centres unmarked) [Terazosin, terazosin, reference compound], the cell growth (SK-N-SH cells) is reported as “tendency to inhibit cell growth”, the “optimal dose (cellular ATP levels)” value (SK-N-SH cells) is reported as 10 µM and the “hypoglycemic effect (blood glucose)” value (Wild-type mice (C57BL/6)) is reported as “did not exhibit a hypoglycemic effect”. For the same compound, the “motor ability (rotarod)” value ([7]; 0.1 mg/Kg daily) was “improved the motor ability”, the “tyrosine hydroxylase protein levels / effect on dopaminergic neurons” value [8] was “protective effect on dopaminergic neurons” and the “inhibition of Pgk1 enzymatic activity” value (Pgk1 [6]; high concentration, 100 µM) was “can inhibit Pgk1 enzymatic activity”. For the same compound, the “optimal concentration for activating Pgk1” value (Pgk1 [6]) was 1 µM.
CC1(C)Oc2cc3cc(N4CCN(C(=O)[C@H]5CCCO5)CC4)nc(N)c3cc2O1 [Compound T4] showed a Kd (Pgk1 [1]; [9]) of 725 µM and an Rmax (Pgk1 [1]) of 75 RU.
